Entries after “also recorded” stand apart in the source; their conditions may differ. Read-outs that look alike come from different tables or passages of the source.
Legend:
[1] = target: T1, NRAS^Q61H interacting with PI3Kα, PI3Kγ, CRAF-RBD or full-length CRAF and RALGDS-RBD (Homo sapiens, UniProt P01111, Q61H); assay: BRET2 RAS-effector PPI assay, NRAS Q61H; assay type: cell-based; settings: HEK293T, 5, 10 and 20 μM
T1 construct: Transfection vector encoded full-length RAS was fused to the donor molecule RLuc8; expressed in transfected cells; host or cells: HEK293T
Description: Fig. 4 Abd-7 disrupting RAS-effector interactions. HEK293T cells were transfected with different BRET-based RAS biosensor expression vectors to evaluate the inhibition of RAS PPI in cells by compound Abd-7. Transfection vector encoded full-length RAS was fused to the donor molecule RLuc8 and the effectors fused to the acceptor molecule GFP[2]. a Effect of Abd-2 and Abd-7 on KRAS^G12D interaction with PI3Kα, PI3Kγ, CRAF or RALGDS. The BRET signal is plotted as a % of control cells treated with DMSO only and dose response to 5, 10 and 20 μM of each compound. b Effect of Abd-2 and Abd-7 on the BRET signal from interaction of KRAS^G12 mutants (Rluc8-KRAS^G12) and full-length CRAF (GFP[2]-CRAF FL). c, d Effect of Abd-2 and Abd-7 on the interaction of NRAS^Q61H (c) and HRAS^G12V (d) with various RAS effectors domain and with full-length CRAF. The BRET ratio corresponds to the light emitted by the GFP[2] acceptor constructs (515 nm ± 30) upon addition of Coelenterazine 400a divided by the light emitted by the RLuc8 donor constructs (410 nm ± 80). The normalized BRET ratio is the BRET ratio normalized to the DMSO negative and calculated as follows: (BRETcompound/BRETDMSO) x 100, where BRETcompound corresponds to the BRET ratio for the compound-treated cells, BRETDMSO to the DMSO-treated cells. Each experiment was repeated at least three times. […]

DLD-1 cells (KRAS^G13D) = assay: Cell viability (CellTiterGlo), DLD-1; assay type: cell-based, human; settings: for effect on cell viability: DLD-1, 0–20 μM, up to 72 h; for IC50: Homo sapiens
Description: (§1) Fig. 5 Abd-7 results on RAS-dependent signalling pathways and cell viability. a, b DLD-1 (a) or H358 (b) cells were serum-starved for 24 h, incubated in mono-layer with Abd-7 in a range from 2, 5, 10 and 20 μM for 3 h and stimulated with EGF 10 min. Proteins were extracted and separated by SDS-PAGE and transferred to membranes for Western analysis with anti-pAKT, anti-pERK, anti-pan AKT and anti-pan ERK. Anti-cyclophilin B antibody was the loading control. Signal was developed using standard ECL. c–e Effects of compounds Abd-2, Abd-4, Abd-5, Abd-6, and Abd-7 on the viability of human cancer cells lines was assessed for a 2-D culture of DLD-1 (mutant KRAS^G13D) cells and HT1080 cells (mutant NRAS^Q61K). The cells were treated with a dose range from 0 μM to 20 μ and incubated for 72 h when cell viability was assessed using CellTitreGlo. […] Each experiment was repeated at least three times (a, b) and four times (c, d). Where error bars are presented, they correspond to mean values ± SD of biological repeats […]
(§2) Cancer cell lines were in seeded in ViewPlates-96 microplates (PerkinElmer). DLD-1 cells were plated at 10,000 cells per well and HT1080 cells at 7500 cells per well and cultured in DMEM, high glucose, GlutaMAX media containing 10% FBS at 37 °C in 5% CO2 atmosphere. Cells were cultured overnight and the compounds (dissolved in DMSO and diluted to 0.2% DMSO) were added to the cells at concentrations ranging from 0 to 20 μM. The cells were incubated under standard culture conditions for either 24, 48 or 72 h. Cell viability was as quantitated using the CellTiterGlo Luminescent Cell Viability Assay (Promega) according to the manufacturer’s instructions to measure ATP generated by metabolically active cells. Luminescent signals were measured using an Envision 2103 Multilabel Microplate Reader (PerkinElmer). The luminescence signals obtained from the compound-treated cells were normalized against the signal for DMSO-only treated cells. The IC50 values, calculated from the 48 and 72 h CellTiterGlo data, were generated by non-linear regression using the software GraphPad Prism 7.00 for windows (GraphPad Inc).
(§3) Supplementary Figure 7: The effect of Abd compounds on the viability of cancer cells The effect of the chemical series on the viability of human cancer cells lines DLD -1 (a colorectal cancer cell line with mutant KRAS
(§4) ) and HT1080 (a fibrosarcoma cell line with
(§5) ). The cells were treated with a dose range from […] of either
(§6) Abd-2, Abd-4, Abd-5, Abd-6 and Abd-7 and incubated for 24 or 48 hours. Cell viability was assessed using CellTitreGlo . In each case, the data are normalized to cells treated with DMSO only. Panels a and b are DLD-1 viability and panels c and d are HT1080 viability.
(§7) The IC50 for Abd-7 at 48 & 72 […]
(§8) hours are shown in panel f. Each experiment was repeated at least four times ( a to d).
(§9) Where error bars are presented, they correspond to mean values ± SD of biological repeats.
(§10) (1 picture or pasted object on this page, not shown here)

HT1080 cells (NRAS^Q61K) = assay: Cell viability (CellTiterGlo), HT1080; assay type: cell-based, human; settings: for effect on cell viability: HT1080, 0–20 μM, up to 72 h; for IC50: Homo sapiens, HT-1080
Description: as §1, §2, §3, §4, §5, §6, §7, §8, §9, §10

| effect on BRET signal, NRAS^Q61H with effectors [1] | IC50 (DLD-1 cells (KRAS^G13D); DLD-1, 72 h, read-out: IC50 cell viability) | IC50 (DLD-1 cells (KRAS^G13D); DLD-1, 48 h, Supplementary Fig. 7f, read-out: DLD-1 IC50 48h) | IC50 (DLD-1 cells (KRAS^G13D); DLD-1, 48 h as printed in discussion, read-out: IC50 cell viability) | IC50 (HT1080 cells (NRAS^Q61K); HT1080, 48 h, Supplementary Fig. 7f, read-out: HT1080 IC50 48h) | IC50 (HT1080 cells (NRAS^Q61K); HT1080, 48 h as printed in discussion, read-out: IC50 cell viability) | IC50 (HT1080 cells (NRAS^Q61K); HT1080, 72 h, read-out: IC50 cell viability) | SMILES | effect on cell viability (DLD-1 cells (KRAS^G13D)) | effect on cell viability (HT1080 cells (NRAS^Q61K)) |
| --- | --- | --- | --- | --- | --- | --- | --- | --- | --- |
| does not | – | – | – | – | – | – | O=C(NCC1COc2ccccc2O1)c1ccco1 (centres unmarked) [Abd-2] | no effect on cell viability; also recorded: had not effect | no effect on cell viability; also recorded: had not effect |
| – | – | – | – | – | – | – | COc1cccc(-c2cccc3c2OC(CNC(=O)c2ccc(OCCN(C)C)cc2)CO3)n1 (centres unmarked) [Abd-5] | have an effect on the viability | have an effect on the viability |
| – | – | – | – | – | – | – | COc1nc(-c2cccc3c2O[C@H](CNC(=O)C2CCOCC2)CO3)ccc1Nc1cccc(CN(C)C)c1 [Abd-6] | have an effect on the viability | have an effect on the viability |
| interferes | 8 µM | 9.8 µM | ~8 µM | 9.4 µM | ~10 µM | 10 µM | COc1nc(-c2cccc3c2OCCO3)ccc1Nc1ccc(CN(C)C)cc1 [Abd-7] | – | – |
